“And” between values parts separate entries of the source, which are not always exact repeats. Identical values can stand only once. Like-named read-outs stand apart in the source and are kept apart here.
How the values were obtained:
A. fumigatus MRL #20438 = test: Checkerboard combination MIC testing; assay type: cell-based, Aspergillus fumigatus; conditions: A. fumigatus MRL 20438 (wild-type), read at 48 hours, duplicate; for MIC per drug in Combination: SCY-078 combined with isavuconazole; for MIC: Aspergillus fumigatus, SCY078, 48 h
From the text: (§1) To determine the type of interaction between a representative compound of the enfumafungin derivatives (SCY-078) with several antifungal agents against Aspergillus fumigatus, the most frequent mold causing invasive disease in humans, the checkerboard method was used. The citrate salt of the compound was used in the studies.
(§2) The checkerboard method involves the determination of percent growth inhibition of fungal cells in the presence of different combinations of drugs. Percent growth inhibition is calculated relative to growth in control wells which contain only cells and no drug. The assay was performed in 96-well microplates in which each row and each column contained twofold serial dilutions of drug A and drug B at concentrations ranging from 0 to slightly higher than their minimum inhibitory concentration (MIC). […] Then the inoculum was added to each well and the growth was evaluated after 48 hrs incubation to determine the first well in which growth was inhibited. The checkerboard-based determination of MICs of antifungal agents in combination was followed by further analysis employing the nonparametric fractional inhibitory concentration index (FICI), which is defined by the following equation:
(§3) [formula] where MIC-A and MIC-B are the MICs of drugs A and B, respectively.
(§4) Each drug was initially diluted in either sterile, distilled water or in DMSO, depending on whether the drug was water-soluble or water-insoluble, respectively.
(§5) Stock solution of SCY-078 was prepared in DMSO at 200 times the concentration desired for use in the drug plates. Serial dilutions of stock solution were conducted in DMSO to obtain eleven 2-fold dilutions of the drug. The SCY-078 solution was then diluted to 4 times the desired concentration in RPMI-1640 medium so that the DMSO would not limit growth of the organism and so that the quantity of DMSO was the same for every dilution.
(§6) Two 96-well plates are needed to conduct a combination test. Using a multichannel pipette, 50 μl of the lowest concentration of the first drug (Drug A) was added to each well of column 1 of the first plate (plate A) and column 1 of the second plate (plate B; rows A-D). Then, 50 μl of the next highest working dilution of Drug A was added to each well in column 2, continuing with dilutions until all columns 1-11 were filled. Column 12 was left empty. 50 μl of the lowest concentration of Drug B was added to each well in Row D of plate B. 50 μl of the next highest working dilution of Drug B was added to each well in row C of plate B, continuing with dilutions until all rows through row B of plate A were filled.
(§7) Following the above, 100 μl of organism inoculum was added to every well. The plates were then incubated for 48 hours and visually read after incubation.
(§8) The objective of the study was to determine whether the combination of SCY-078 with voriconazole, isavuconazole, or amphotericin B would result in a combined in vitro antifungal activity exceeding the sum of the activities of each drug alone. Combination MIC testing was performed using the checkerboard assay described above.
(§9) Initial MIC determinations of the individual antifungals were performed according to the Clinical and Laboratory Standards Institute (CLSI) M38-A2 standard for the susceptibility testing of filamentous fungi.
(§10) Combination MIC testing was performed using a checkerboard test method according to the Center for Medical Mycology SOP A11.3. The checkerboard combination test method is a modification of the microdilution antifungal susceptibility test wherein two test compounds are combined in varying concentrations to determine whether they have synergistic, antagonistic, or no effect on the respective MIC values.
(§11) Antifungals were serially diluted two-fold in RPMI medium to produce eleven concentrations each and were combined in wells of a microtiter plate. Two rows consisting of serial dilutions of each individual drug were included. All combination testing was conducted in duplicate. […]

A. fumigatus MRL #28382 = test: Checkerboard combination MIC testing; assay type: cell-based, Aspergillus fumigatus; conditions: A. fumigatus MRL 28382 (wild-type), read at 48 hours, duplicate; for MIC: Aspergillus fumigatus, SCY078, 48 h
From the text: as §1, §2, §3, §4, §5, §6, §7, §8, §9, §10, §11

A. fumigatus MRL #28383 = test: Checkerboard combination MIC testing; assay type: cell-based, Aspergillus fumigatus; conditions: A. fumigatus MRL 28383 (azole-resistant), read at 48 hours, duplicate; for MIC: Aspergillus fumigatus, SCY078, 48 h, drug alone
From the text: as §1, §2, §3, §4, §5, §6, §7, §8, §9, §10, §11

A. fumigatus MRL #28401 = test: Checkerboard combination MIC testing; assay type: cell-based, Aspergillus fumigatus; conditions: A. fumigatus MRL 28401 (wild-type), read at 48 hours, duplicate; for MIC per drug in Combination: SCY-078 combined with isavuconazole; for MIC: Aspergillus fumigatus, SCY078, 48 h
From the text: as §1, §2, §3, §4, §5, §6, §7, §8, §9, §10, §11

A. fumigatus MRL #28500 = test: Checkerboard combination MIC testing; assay type: cell-based, Aspergillus fumigatus; conditions: read at 48 hours, duplicate
From the text: as §1, §2, §3, §4, §5, §6, §7, §8
A. fumigatus 28500 has a CYP51 mutation at F46Y.
as §9, §10
Antifungals were serially diluted two-fold in RPMI medium to produce eleven concentrations each and were combined in wells of a microtiter plate. Two rows consisting of serial dilutions of each individual drug were included. […]

Solubility in water = assay type: physicochemical
From the text: as §4

[1] = drug alone, SCY-078/isavuconazole test, read-out: MIC per drug Alone
[2] = SCY-078 combined with isavuconazole
[3] = SCY-078/isavuconazole test, read-out: MIC per drug Alone
[4] = SCY-078 combined with amphotericin B
[5] = SCY-078 combined with voriconazole
[6] = drug alone, SCY-078/amphotericin B test, read-out: MIC Alone
[7] = drug alone, SCY-078/voriconazole test, read-out: MIC Alone
[8] = drug alone, SCY-078/amphotericin B test
[9] = drug alone, SCY-078/isavuconazole test

## C[C@@H](c1nc(-c2ccc(C#N)cc2)cs1)[C@](O)(Cn1cncn1)c1cc(F)ccc1F [Isavuconazole, isavuconazole]
A. fumigatus MRL #20438
  MIC per drug in Combination: 0.5 µg/mL
A. fumigatus MRL #20438; [1]
  MIC: 1 µg/mL
A. fumigatus MRL #28382; [2]
  MIC per drug in Combination: 0.25 µg/mL
A. fumigatus MRL #28383; [2]
  MIC per drug in Combination: >8 µg/mL and 4 µg/mL
A. fumigatus MRL #28383; [3]
  MIC: > 8 µg/mL
A. fumigatus MRL #28401
  MIC per drug in Combination: 0.25 µg/mL
A. fumigatus MRL #28401; [1]
  MIC: 1 µg/mL
A. fumigatus MRL #28500; A. fumigatus MRL 28500 (azole-resistant, CYP51 F46Y), SCY-078 combined with isavuconazole
  MIC per drug in Combination: >8 µg/mL
A. fumigatus MRL #28500; Aspergillus fumigatus, SCY078, 48 h, read-out: MIC per drug Alone, A. fumigatus MRL 28500 (azole-resistant, CYP51 F46Y), drug alone, SCY-078/isavuconazole test
  MIC: > 8 µg/mL

## CC(C)[C@@H](C)[C@@]1(C)CC[C@]2(C)[C@H]3CC[C@@H]4[C@@]5(COC[C@@]4(C)[C@@H](OC[C@](C)(N)C(C)(C)C)[C@H](n4ncnc4-c4ccncc4)C5)C3=CC[C@@]2(C)[C@@H]1C(=O)O [SCY-078, (1S,4aR,6aS,7R,8R,10aR,10bR,12aR,14R,15R)-15-[[(2R)-2-amino-2,3,3-trimethylbutyl]oxy]-8-[(1R)-1,2-dimethylpropyl]-14-[5-(4-pyridinyl)-1H-1,2,4-triazol-1-yl]-1,6,6a,7,8,9,10,10a,10b,11,12,12a-dodecahydro-1,6a,8,10a-tetramethyl-4H-1,4a-propano-2H-phenanthro[1,2-c]pyran-7-carboxylic acid]
A. fumigatus MRL #20438; [4]
  MIC in Combination: 0.016 µg/mL
A. fumigatus MRL #20438
  MIC per drug in Combination: 0.016 µg/mL
A. fumigatus MRL #20438; [5]
  MIC in Combination: 0.125 µg/mL and 0.25 µg/mL
A. fumigatus MRL #20438; drug alone, SCY-078/voriconazole test
  MIC Alone: 4 µg/mL
A. fumigatus MRL #20438; [6]
  MIC: 4 µg/mL
A. fumigatus MRL #20438; [1]
  MIC: 4 µg/mL
A. fumigatus MRL #20438; [7]
  MIC: 8 µg/mL
A. fumigatus MRL #28382; [8]
  MIC Alone: 8 µg/mL
A. fumigatus MRL #28382; [9]
  MIC per drug Alone: 4 µg/mL
A. fumigatus MRL #28382; [6]
  MIC: 4 µg/mL
A. fumigatus MRL #28382; [1]
  MIC: 8 µg/mL
A. fumigatus MRL #28382; [7]
  MIC: 8 µg/mL
A. fumigatus MRL #28383; [4]
  MIC in Combination: 0.016 µg/mL
A. fumigatus MRL #28383; [5]
  MIC in Combination: 0.031 µg/mL
A. fumigatus MRL #28383; SCY-078/amphotericin B test, read-out: MIC Alone
  MIC: 4 µg/mL
A. fumigatus MRL #28383; [3]
  MIC: 4 µg/mL
A. fumigatus MRL #28383; SCY-078/voriconazole test, read-out: MIC Alone
  MIC: 8 µg/mL
A. fumigatus MRL #28401; [4]
  MIC in Combination: 0.016 µg/mL and 0.031 µg/mL
A. fumigatus MRL #28401
  MIC per drug in Combination: 0.25 µg/mL and 0.5 µg/mL
A. fumigatus MRL #28401; [5]
  MIC in Combination: 0.25 µg/mL and 0.125 µg/mL
A. fumigatus MRL #28401; [8]
  MIC Alone: 8 µg/mL
A. fumigatus MRL #28401; [9]
  MIC per drug Alone: 8 µg/mL
A. fumigatus MRL #28401; [6]
  MIC: 4 µg/mL
A. fumigatus MRL #28401; [1]
  MIC: 4 µg/mL
A. fumigatus MRL #28401; [7]
  MIC: 8 µg/mL
A. fumigatus MRL #28500; A. fumigatus MRL 28500 (azole-resistant, CYP51 F46Y), SCY-078 combined with voriconazole
  MIC in Combination: 1 µg/mL
A. fumigatus MRL #28500; A. fumigatus MRL 28500 (azole-resistant, CYP51 F46Y), drug alone, SCY-078/voriconazole test
  MIC Alone: 8 µg/mL
Solubility in water
  Solubility in water: not soluble in water
